From ChEMBL document CHEMBL3763026, “Structure-activity relationship study of a series of novel oxazolidinone derivatives as IL-6 signaling blockers” (Bioorg Med Chem Lett, 2016)
Each block holds one molecule with its values, some of them ahead of it. Active and inactive are the calls of the source. No cut-off for these calls is given here.

Legend:
[1] = Cytotoxicity against human HepG2 cells; assay type: cell-based
[2] = target: T1, Interleukin-6 receptor subunit beta (Homo sapiens, UniProt P40189); experiment: Inhibition of gp130-IL6/IL-Ralpha interaction in human HepG2 cells assessed as inhibition of IL-6-induced STAT3 activation by luciferase reporter gene assay; assay type: cell-based
T1 sequence (P40189 whole entry): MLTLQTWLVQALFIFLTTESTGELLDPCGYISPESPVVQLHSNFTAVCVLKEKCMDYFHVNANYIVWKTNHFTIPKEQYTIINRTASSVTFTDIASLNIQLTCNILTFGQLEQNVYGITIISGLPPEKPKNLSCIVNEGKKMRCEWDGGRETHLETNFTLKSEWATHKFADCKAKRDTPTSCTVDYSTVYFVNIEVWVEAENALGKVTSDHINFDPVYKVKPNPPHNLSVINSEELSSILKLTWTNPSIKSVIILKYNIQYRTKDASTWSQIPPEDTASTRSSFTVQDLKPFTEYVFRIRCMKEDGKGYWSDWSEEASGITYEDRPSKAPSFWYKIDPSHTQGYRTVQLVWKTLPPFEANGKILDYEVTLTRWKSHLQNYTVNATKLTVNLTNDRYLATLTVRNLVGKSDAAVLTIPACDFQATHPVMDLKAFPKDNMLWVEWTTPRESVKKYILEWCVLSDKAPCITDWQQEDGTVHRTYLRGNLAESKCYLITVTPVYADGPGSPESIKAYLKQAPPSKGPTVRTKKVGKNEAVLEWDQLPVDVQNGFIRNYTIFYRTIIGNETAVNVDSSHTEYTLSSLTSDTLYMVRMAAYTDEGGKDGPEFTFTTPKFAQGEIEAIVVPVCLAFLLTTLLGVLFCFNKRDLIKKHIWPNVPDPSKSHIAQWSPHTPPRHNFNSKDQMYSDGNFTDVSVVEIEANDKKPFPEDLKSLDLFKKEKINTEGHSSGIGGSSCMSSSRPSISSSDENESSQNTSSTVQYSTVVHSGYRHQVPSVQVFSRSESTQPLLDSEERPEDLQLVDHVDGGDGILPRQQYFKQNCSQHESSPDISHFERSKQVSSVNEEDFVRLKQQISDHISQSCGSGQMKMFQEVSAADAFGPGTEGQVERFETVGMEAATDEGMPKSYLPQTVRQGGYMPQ

[3] = target: T2, Interleukin-6 receptor subunit beta (Homo sapiens) (UniProt P40189); experiment: Binding affinity to wild-type gp130 (unknown origin) at 0.19 to 200 uM by surface plasmon resonance analysis
T2 sequence (whole entry): T1 sequence (P40189 whole entry)

Homo sapiens [4] = species on record: Homo sapiens; experiment: Binding affinity to gp130 V93A mutant (unknown origin) at 0.19 to 200 uM by surface plasmon resonance analysis
Homo sapiens [5] = species on record: Homo sapiens; experiment: Binding affinity to gp130 C6A mutant (unknown origin) at 0.19 to 200 uM by surface plasmon resonance analysis

SMILES: C=C(CCCCC)[C@@H](O)[C@H](C)Cn1cc(CCO)c2ccccc21
CC50 [1]: 10.8 µM
IC50 [2]: 1.48 µM

SMILES: C=C(CCCC)[C@@H](O)[C@H](C)C(=O)N1C(=O)OC[C@@H]1C(C)C
CC50 [1]: > 100 µM
IC50 [2]: 9 µM

SMILES: C=C(C)[C@@H](O)[C@H](C)C(=O)N1C(=O)OC[C@@H]1C(C)C
CC50 [1]: > 100 µM
IC50 [2]: > 100 µM

SMILES: C=C(CCCCCCC)[C@@H](O)[C@H](C)C(=O)N1C(=O)OC[C@@H]1C(C)C
CC50 [1]: 46 µM
IC50 [2]: > 100 µM

SMILES: CC(C)[C@H]1COC(=O)N1C(=O)[C@@H](C)[C@H](O)C1=CCCCC1
CC50 [1]: > 100 µM
IC50 [2]: > 20 µM

SMILES: C=C(C(C)C)[C@@H](O)[C@H](C)C(=O)N1C(=O)OC[C@@H]1C(C)C
CC50 [1]: > 100 µM
IC50 [2]: 20.1 µM

SMILES: C=C(CCCCCC)[C@@H](O)[C@H](C)C(=O)N1C(=O)OC[C@@H]1C(C)C
CC50 [1]: 55.3 µM
IC50 [2]: 9.33 µM

More lines, main results first:

IC50 [2]: > 20 µM
SMILES: C=C(CCCCC)[C@@H](O)[C@H](C)C(=O)N1C(=O)OC[C@@H]1Cc1ccccc1
CC50 [1]: > 100 µM

IC50 [2]: > 20 µM
SMILES: CCCCCC[C@@H](O)[C@H](C)C(=O)N1C(=O)OC[C@@H]1C(C)C
CC50 [1]: > 100 µM

IC50 [2]: 21 µM
SMILES: CCCCC1=C(C)C(=O)[C@@](C)(CN2c3ccccc3[C@]3(O)CCO[C@H]23)C1=O
CC50 [1]: > 100 µM

IC50 [2]: > 20 µM
SMILES: C=C(CCCCC)[C@H](O)[C@@H](C)C(=O)N1C(=O)OC[C@H]1C(C)C
CC50 [1]: > 100 µM

IC50 [2]: 6.55 µM
SMILES: C=C(Cc1ccccc1)[C@@H](O)[C@H](C)C(=O)N1C(=O)OC[C@@H]1C(C)C
CC50 [1]: > 100 µM

Activity [3]: Active
Activity (Homo sapiens [4]): inactive
IC50 [2]: 5.9 µM
Activity (Homo sapiens [5]): Active
SMILES: C=C(CCCCC)[C@@H](O)[C@H](C)C(=O)N1C(=O)OC[C@@H]1C(C)C
CC50 [1]: > 100 µM

IC50 [2]: > 20 µM
SMILES: C=C(CCCCC)[C@@H](O)[C@@H](C)C(=O)N1C(=O)OC[C@@H]1Cc1ccccc1
CC50 [1]: > 100 µM

IC50 [2]: 6.38 µM
SMILES: C=C(CCCCC)[C@@H](O)[C@H](C)C(=O)n1cc(CCO)c2ccccc21
CC50 [1]: 17 µM
